Legend:
[1] = test system: HuM2e antibody 23K12; type: binding, human
[2] = test system: anti-M2 human monoclonal antibody Z3G1; type: binding

Substance	Signal (peptides that bind to 23K21 and 8I10) [1]	Signal (peptides that show specific binding to Z3G1) [2]	Signal (peptides that bind to Z3G1) [2]
341 (CSLLTEVCSLLTEC; epitope peptide) [compound 341]	1644	1122	–
517 (SLLTEVETPIRNEMGCRCNDSSD; epitope peptide) [compound 517]	1020	2398	–
318 (SLLTEVETPIRNEWGCRCKDSSD; epitope peptide) [compound 318]	1802	–	2549
303 (CSLLTEVGMCLLTEV; epitope sequence) [compound 303]	1941	–	2618
421 (SLLTEVETPIRNEWGCRCNDSED; epitope peptide) [compound 421]	944	–	2527
690 (SLLTEVHTPIRNEWGCRCNDSSD; epitope peptide) [compound 690]	722	2057	–
314 (SLLTEVGSLLCEV; epitope peptide) [compound 314]	1834	2392	–
499 (CSLLTEVGMSCLCEC; epitope peptide) [compound 499]	1066	–	2101
559 (SLLTEVETAIRNEWGCRCNDSSD; epitope peptide) [compound 559]	895	2415	–
527 (SLLTEVEQPIRNEWGCRCNDSSD; epitope peptide) [compound 527]	986	2344	–
386 (SLLTEVETPIRNEVGCRCNDSSD; epitope peptide) [compound 386]	1371	2411	–
422 (SLLTEVETPIRNEWGCRCNDSFD; epitope peptide) [compound 422]	947	–	2492
639 (SLLTEVETPIRNEWGCFCNDSSD; epitope peptide) [compound 639]	767	2312	–
290 (CSLLTEVGSLLTCV; epitope peptide) [compound 290]	2142	2503	–
309 (CSLLTEVGMSLLCEV; epitope peptide) [compound 309]	1891	–	2734
645 (SLLTEVVTPIRNEWGCRCNDSSD; epitope peptide) [compound 645]	763	1492	–
410 (SLLTEVETPIRNEWGCRCNDLSD; epitope peptide) [compound 410]	769	–	2494
459 (SLITEVETPIRNEWGCRCNDSSD; epitope peptide) [compound 459]	1277	1996	–
587 (SLLTEVETPIRCEWGCRCNDSSD; epitope peptide) [compound 587]	850	1956	–
230 (CTPIRNEWGSRSNDSSCSLLTEVETC; epitope peptide) [compound 230]	861	2168	–
716 (SLLTEVETPIRNEFGCRCNDSSD; epitope peptide) [compound 716]	702	2444	–

Substance	Signal (peptides that bind to 23K21 and 8I10) [1]	Signal (peptides that show specific binding to Z3G1) [2]	Signal (peptides that bind to Z3G1) [2]
644 (SLLTEVETPIRNEWGVRCNDSSD; epitope peptide) [compound 644]	764	2444	–
201 (CEVETPIRNEWGSRSNCSLLTEVETC; epitope peptide) [compound 201]	1007	2288	–
438 (SLLTEVETPIRN; epitope peptide) [compound 438]	751	–	2130
696 (SLLTEVETPIRNEHGCRCNDSSD; epitope peptide) [compound 696]	719	2398	–
445 (SLLTEVETPIRNEWGCRCN; epitope peptide) [compound 445]	977	–	2506
609 (SLLTEVETHIRNEWGCRCNDSSD; epitope peptide) [compound 609]	816	2288	–
641 (SLLTEVETPIRNELGCRCNDSSD; epitope peptide) [compound 641]	765	2436	–
465 (SLLTEVETPIRNEWGCRCNKSSD; epitope peptide) [compound 465]	1254	–	2597
398 (SLLTEVETPIRNEWGCRCNRSSD; epitope peptide) [compound 398]	890	–	2514
711 (CSLLTEVGSLCTEV; epitope peptide) [compound 711]	707	2409	–
546 (SLLTEVETPIRNRWGCRCNDSSD; epitope peptide) [compound 546]	921	2257	–
623 (SLLTEVETCIRNEWGCRCNDSSD; epitope peptide) [compound 623]	800	1992	–
670 (SLLTEVETWIRNEWGCRCNDSSD; epitope peptide) [compound 670]	736	2146	–
364 (CSLLTEVGCSLLTEV; epitope peptide) [compound 364]	1499	–	2503
426 (SLLTEVETPIRNEWGCRCNDSLD; epitope peptide) [compound 426]	779	–	2400
250 (CSLLTEVETCTEVETPIRNEWGSRSC; epitope peptide) [compound 250]	786	2474	–
457 (SLLTEVETPMRNEWGCRCNDSSD; epitope peptide) [compound 457]	1281	2297	–
448 (SLLTEVETPIRNEWGCRCNDSS; epitope peptide) [compound 448]	833	–	2325
436 (SLLTEVETPI; epitope peptide) [compound 436]	1084	–	2465
614 (SLLTEVETVIRNEWGCRCNDSSD; epitope peptide) [compound 614]	810	2264	–
